In ChEMBL document CHEMBL3886984, “Tetrahydroimidazo(1,5-D)[1,4]oxazepine derivative” (2016):

Target: Metabotropic glutamate receptor 2 (Homo sapiens, UniProt Q14416)
Assay: [35S]GTPgammaS Binding Assay: The frozen cell membrane fraction prepared as described above was thawed before use, and the resultant was diluted with a buffer for a binding assay (final concentrations: 20 mM HEPES, 100 mM NaCl, 1 mM MgCl2, 3 uM GDP, 300 ug/mL saponin, 0.1% BSA). The compound of each example was added to a cell membrane fraction containing 1.8 to 3 ug/assay of membrane protein on a plate, followed by incubation at room temperature for 30 minutes. Thereafter, with glutamic acid (in a final concentration of 10 uM) added thereto, incubation was performed at room temperature for 15 minutes, and thereafter, [35S]GTPγS (in a final concentration of 0.8 kBq) and 588 ug WGA-SPA beads were added thereto, followed by incubation at room temperature for 1 hour. After the incubation, the plate was subjected to the centrifugal separation at 2,500 rpm and room temperature, and then, membrane cell binding radioactivity was measured with a top count. A [35S]GTPγS binding amount obtained in the presence of glutamic acid was defined as specific binding. On the basis of ratios of inhibiting the specific binding at various concentrations of the compounds of the respective examples, inhibition curves were obtained. […]
Format: functional

Metabotropic glutamate receptor 2, sequence (Q14416 whole entry): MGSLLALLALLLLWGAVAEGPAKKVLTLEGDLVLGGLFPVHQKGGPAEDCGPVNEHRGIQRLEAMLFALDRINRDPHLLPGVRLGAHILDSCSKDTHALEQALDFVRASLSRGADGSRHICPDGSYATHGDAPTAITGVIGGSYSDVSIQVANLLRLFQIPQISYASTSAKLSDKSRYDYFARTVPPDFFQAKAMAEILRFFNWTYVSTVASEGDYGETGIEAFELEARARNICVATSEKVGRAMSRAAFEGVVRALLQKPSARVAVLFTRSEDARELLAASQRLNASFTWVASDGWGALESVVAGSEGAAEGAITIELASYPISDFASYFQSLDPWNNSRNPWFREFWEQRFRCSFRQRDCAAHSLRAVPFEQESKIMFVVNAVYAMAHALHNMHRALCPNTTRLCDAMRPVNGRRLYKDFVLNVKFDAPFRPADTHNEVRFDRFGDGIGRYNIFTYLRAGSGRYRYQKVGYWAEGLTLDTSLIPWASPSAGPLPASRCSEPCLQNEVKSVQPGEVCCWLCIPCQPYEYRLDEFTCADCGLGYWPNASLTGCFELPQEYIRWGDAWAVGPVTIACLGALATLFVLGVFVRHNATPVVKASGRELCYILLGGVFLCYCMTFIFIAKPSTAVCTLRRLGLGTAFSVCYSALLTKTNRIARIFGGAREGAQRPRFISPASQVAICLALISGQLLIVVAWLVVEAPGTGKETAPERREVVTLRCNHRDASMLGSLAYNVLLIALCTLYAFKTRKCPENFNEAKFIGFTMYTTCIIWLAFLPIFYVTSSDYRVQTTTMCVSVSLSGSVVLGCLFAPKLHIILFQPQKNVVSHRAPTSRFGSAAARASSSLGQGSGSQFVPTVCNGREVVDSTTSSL

- IC50: 4.2 nM
Compound: CCc1ccc(-c2nc(-c3cc(C)nc(C)c3)c3n2C[C@@H](C)OCC3)cc1OC
